Results as given in US11505548B2, “Heterocyclic compounds and their use for treatment of helminthic infections and diseases” (Celgene Corporation, priority 2019, dated 2022).

Test system: Onchocerca gutturosa Adult Male Worms
Experiment: Onchocerciasis in vitro screening model, worm motility score
Type: cell-based
Details: in vitro; Onchocerca gutturosa adult male worms; class A/B/C; read-out: O. gutturosa activity level (IC50 or MED)

Cc1ccnc(Nc2nc(-c3ncccc3C)ns2)c1 [Compound 238, 3-(3-methyl-pyridin-2-yl)-N-(4-methyl-pyridin-2-yl)-1,2,4-thiadiazol-5-amine]
IC50: < 200 nM

c1ccc(-c2ccnc(Nc3nnc(-c4ccccn4)s3)c2)cc1 [Compound 240, N-(4-pheny-lpyridin-2-yl)-5-(pyridin-2-yl)-1,3,4-thiadiazol-2-amine]
IC50: 500 to 5000 nM

c1ccc(-c2ccnc(Nc3nnc(-c4ccccn4)[nH]3)c2)cc1 [Compound 241, 4-phenyl-N-(5-(pyridin-2-yl)-4H-1,2,4-triazol-3-yl) pyridin-2-amine]
IC50: < 200 nM

Cc1ccnc(Nc2nnc(-c3ncccc3C)[nH]2)c1 [Compound 242, 4-methyl-N-(5-(3-methyl-pyridin-2-yl)-4H-1,2,4-triazol-3-yl)pyridin-2-amine]
IC50: 500 to 5000 nM

COc1ccc(-c2nnc(Nc3cc(OC(C)C)ccn3)s2)nc1 [Compound 243, N-(4-isoprop-oxypyridin-2-yl)-5-(5-methoxy-pyridin-2-yl)-1,3,4-thiadiazol-2-amine]
IC50: 500 to 5000 nM

Cc1ccnc(Nc2nnc(-c3ncccc3C)s2)c1 [Compound 244, 5-(3-methyl-pyridin-2-yl)-N-(4-methyl-pyridin-2-yl)-1,3,4-thiadiazol-2-amine]
IC50: 500 to 5000 nM

c1ccc(-c2ccnc(Nc3nc(-c4ccccn4)no3)c2)cc1 [Compound 246, N-(4-phenyl-pyridin-2-yl)-3-(pyridin-2-yl)-1,2,4-oxadiazol-5-amine]
IC50: 500 to 5000 nM

CC(=O)N(C)c1cc(C(F)(F)F)cnc1Nc1nc(-c2ccc(OC(C)C)cn2)ns1 [Compound 247, N-(2-(3-(5-isopropoxy-pyridin-2-yl)-1,2,4-thiadiazol-5-ylamino)-5-(trifluoro-methyl)pyridin-3-yl)-N-methylacetamide]
IC50: < 200 nM

CC(C)Oc1ccc(-c2nsc(Nc3ncc(C(F)(F)F)cc3N(C)C(=O)C3CC3)n2)nc1 [Compound 248, N-(2-(3-(5-isopropoxy-pyridin-2-yl)-1,2,4-thiadiazol-5-ylamino)-5-(trifluoro-methyl)pyridin-3-yl)-N-methylcyclo-propanecarbox-amide]
IC50: 500 to 5000 nM

CC(=O)N(C)c1cc(C(F)(F)F)cnc1Nc1nc(-c2cc3c(cn2)N(C)CC3)ns1 [Compound 249, N-methyl-N-(2-(3-(1-methyl-2,3-dihydro-1H-pyrrolo[2,3-c]pyridin-5-yl)-1,2,4-thiadiazol-5-ylamino)-5-(trifluoromethyl)pyridin-3-yl)acetamide]
IC50: 200 to 500 nM

CC(C)Oc1cnc(-c2nsc(Nc3ncccc3C(=O)N3CCCC3)n2)cc1C(F)(F)F [Compound 251, (2-(3-(5-isopropoxy-4-(trifluoromethyl)pyridin-2-yl)-1,2,4-thiadiazol-5-ylamino)pyridin-3-yl) (pyrrolidin-1-yl)methanone]
IC50: 500 to 5000 nM

Cc1cnc(Nc2nc(-c3cc(C(N)=O)c(OC(C)C)cn3)ns2)c(C(F)(F)F)c1 [Compound 252, 5-isopropoxy-2-(5-(5-methyl-3-(trifluoro-methyl)pyridin-2-ylamino)-1,2,4-thiadiazol-3-yl)isonico-tinamide]
IC50: 500 to 5000 nM

COc1cnc(Nc2nc(-c3cc(C(N)=O)c(OC(C)C)cn3)ns2)c(C(F)(F)F)c1 [Compound 253, 5-isopropoxy-2-(5-(5-methoxy-3-(trifluoro-methyl)pyridin-2-ylamino)-1,2,4-thiadiazol-3-yl)isonico-tinamide]
IC50: 500 to 5000 nM

Cc1cnc(Nc2nc(-c3cc(C(=O)N(C)C)c(OC(C)C)cn3)ns2)c(C(F)(F)F)c1 [Compound 254, 5-isopropoxy-N,N-dimethyl-2-(5-(5-methyl-3-(trifluoromethyl)pyridin-2-ylamino)-1,2,4-thiadiazol-3-yl)isonico-tinamide]
IC50: 500 to 5000 nM

COc1ccc(-c2nnc(Nc3cc(OC(C)C)ccn3)o2)nc1 [Compound 255, N-(4-isoprop-oxypyridin-2-yl)-5-(5-methoxy-pyridin-2-yl)-1,3,4-oxadiazol-2-amine]
IC50: 500 to 5000 nM

COc1ccc(-c2nnc(Nc3cc(OC(C)C)ccn3)[nH]2)nc1 [Compound 257, 4-isopropoxy-N-(5-(5-methoxy-pyridin-2-yl)-4H-1,2,4-triazol-3-yl)pyridin-2-amine]
IC50: 500 to 5000 nM

Cc1cccnc1Nc1nnc(-c2ccc(OC3CCOCC3)cn2)[nH]1 [Compound 258, 3-methyl-N-(5-(5-(tetrahydro-2H-pyran-4-yloxy)pyridin-2-yl)-4H-1,2,4-triazol-3-yl) pyridin-2-amine]
IC50: < 200 nM

CC(C)Oc1cnc(-c2nsc(Nc3ncccc3C(=O)N(C)C)n2)cc1C(F)F [Compound 260, 2-(3-(4-(difluoro-methyl)-5-isopropoxy-pyridin-2-yl)-1,2,4-thiadiazol-5-ylamino)-N,N-dimethyl-nicotinamide]
IC50: 500 to 5000 nM

CC(=O)N(C)c1cccnc1Nc1nc(-c2cc(C(F)F)c(OC(C)C)cn2)ns1 [Compound 261, N-(2-(3-(4-(difluoromethyl)-5-isopropoxy-pyridin-2-yl)-1,2,4-thiadiazol-5-ylamino)pyridin-3-yl)-N-methylacetamide]
IC50: 500 to 5000 nM

CC(C)Oc1ccc(-c2nsc(Nc3ncccc3C(=O)N(C)C3CC3)n2)nc1 [Compound 262, N-cyclo-propyl-2-(3-(5-isopropoxy-pyridin-2-yl)-1,2,4-thiadiazol-5-ylamino)-N-methyl-nicotinamide]
IC50: 500 to 5000 nM

CC(C)Oc1cnc(-c2nsc(Nc3ncccc3C(=O)N(C)C3CC3)n2)cc1C(F)(F)F [Compound 263, N-cyclo-propyl-2-(3-(5-isopropoxy-4-(trifluoro-methyl)pyridin-2-yl)-1,2,4-thiadiazol-5-ylamino)-N-methyl-nicotinamide]
IC50: 500 to 5000 nM

COc1cnc(Nc2nc(-c3cc(C(=O)N(C)C)c(OC(C)C)cn3)ns2)c(C(F)(F)F)c1 [Compound 264, 5-isopropoxy-2-(5-(5-methoxy-3-(trifluoro-methyl)pyridin-2-ylamino)-1,2,4-thiadiazol-3-yl)-N,N-dimethyliso-nicotinamide]
IC50: 500 to 5000 nM

Cc1cccnc1Nc1nc(-c2ccc(OC3CCN(C(=O)C(C)C)CC3)cn2)ns1 [Compound 265, 2-methyl-1-(4-(6-(5-(3-methylpyridin-2-ylamino)-1,2,4-thiadiazol-3-yl)pyridin-3-yloxy)piperidin-1-yl)propan-1-one]
IC50: 500 to 5000 nM

CC(=O)N1CCC(Oc2ccc(-c3nsc(Nc4ncccc4C)n3)nc2)CC1 [Compound 266, 1-(4-(6-(5-(3-methyl-pyridin-2-ylamino)-1,2,4-thiadiazol-3-yl)pyridin-3-yloxy)piperidin-1-yl)ethanone]
IC50: 500 to 5000 nM

CC(=O)N1CCc2cc(-c3nsc(Nc4ncccc4C(F)(F)F)n3)ncc21 [Compound 267, 1-(5-(5-(3-(trifluoromethyl)pyridin-2-ylamino)-1,2,4-thiadiazol-3-yl)-2,3-dihydro-1H-pyrrolo[2,3-c]pyridin-1-yl)ethanone]
IC50: 500 to 5000 nM

CC(=O)N(C)c1cc(C(F)(F)F)cnc1Nc1nc(-c2cc(C(F)(F)F)c(OC(C)C)cn2)ns1 [Compound 268, N-(2-(3-(5-isopropoxy-4-(trifluoromethyl)pyridin-2-yl)-1,2,4-thiadiazol-5-ylamino)-5-(trifluoromethyl)pyridin-3-yl)-N-methylacetamide]
IC50: 500 to 5000 nM

CC(=O)N(C)c1cnc(-c2nsc(Nc3ncccc3C)n2)cc1C [Compound 270, N-methyl-N-(4-methyl-6-(5-(3-methylpyridin-2-ylamino)-1,2,4-thiadiazol-3-yl)pyridin-3-yl)acetamide]
IC50: 500 to 5000 nM
